Results on 46 compounds are retold here after patent publication US6727264B1 (Synaptic Pharmaceutical Corporation, priority 2001, dated 2004).

The structures appear in SMILES notation. Like-named read-outs stand apart in the source and are kept apart here.

The target in the assay is rat MCH-1 (Rattus norvegicus, UniProt P97639). The assay is described as follows: Radioligand binding assay at cloned rat MCH1 receptor ([3H] Compound A). Further details: host or cells: Peak rapid 293 (Peakr293) cells, transient calcium phosphate transfection, membranes. The conditions noted are these: cloned rat MCH1 receptor, 0.08 nM [3H] Compound A, read-out: Ki (nM) rMCH1.
Sequence of rat MCH-1 (P97639 whole entry): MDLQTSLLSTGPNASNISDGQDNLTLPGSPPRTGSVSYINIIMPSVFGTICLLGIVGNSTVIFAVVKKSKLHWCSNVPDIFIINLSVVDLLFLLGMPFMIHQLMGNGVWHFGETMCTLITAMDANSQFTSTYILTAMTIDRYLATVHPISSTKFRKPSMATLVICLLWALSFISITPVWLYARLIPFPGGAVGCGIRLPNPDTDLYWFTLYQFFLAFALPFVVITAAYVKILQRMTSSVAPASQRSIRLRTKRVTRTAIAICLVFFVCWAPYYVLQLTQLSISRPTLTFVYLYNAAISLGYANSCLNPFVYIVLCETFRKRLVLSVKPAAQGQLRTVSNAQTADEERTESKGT

Broadly, the Ki is a dissociation constant, usually derived from enzyme kinetics or from competition with a known ligand. On to `CC(C)C(=O)Nc1cccc(C2CCN(CC[C@H](NC(=O)c3sccc3Cl)c3ccccc3)CC2)c1` [Example 314], for which the Ki (membranes from Peakr293 cells) worked out at 7.6 nM.

Consider `Cc1ccc2[nH]c(-c3ccccc3)c(CCN3CCC(c4cccc(NC(=O)C(C)C)c4)CC3)c2c1` [Example 399], for which the Ki (Peakr293 cell membranes) amounted to 31.9 nM.

Take `COc1ccc2[nH]c(-c3ccc(Br)cc3)c(CCCN3CCC(c4cccc(NC(=O)C(C)C)c4)CC3)c2c1` [Example 761]: the Ki (Peakr293 cell membranes) was found to be 15.9 nM.

For `O=C(CCCN1CCC(c2cccc(NC(=O)C3CC3)c2)CC1)c1ccc(Br)cc1` [Example 544], the inhibition constant (Ki) (Peakr293 cell membranes) stood at 16.2 nM.

Take `Cc1onc(-c2c(Cl)cccc2Cl)c1C(=O)NCCCN1CCC(c2cccc(NC(=O)C(C)C)c2)CC1` [Example 332]: under “membranes from Peakr293 cells”, the inhibition constant (Ki) was 29 nM.

With `CC(C)C(=O)Nc1cccc(C2CCN(CCCCC(=O)c3cccc(I)c3)CC2)c1` [Example 672], the inhibition constant (Ki) (Peakr293 cell membranes) stood at 19.7 nM.

For the compound `CC(C)C(=O)Nc1cccc(C2CCN(CCCCCCNC(=O)c3ccc4ccccc4c3)CC2)c1` [Example 628], the Ki (Peakr293 cell membranes) is 161 nM.

With `CCC(=O)Nc1cccc(C2CCN(Cc3cn(-c4ccc(Cl)cc4)c4ccccc34)CC2)c1` [Example 455], the inhibition constant Ki (Peakr293 cell membranes) amounted to 10.6 nM.

On to `CC(=O)c1ccccc1OC(CCN1CCC(c2cccc(NC(=O)C(C)C)c2)CC1)c1ccc(F)cc1` (stereo not shown) [Example 175], for which the Ki (membranes from Peakr293 cells) turned out to be 16.2 nM.

For `CC(C)C(=O)Nc1cccc(C2CCN(CCCOc3cccc(Cl)c3)CC2)c1` [Example 344], where the note is “membranes from Peakr293 cells”, the Ki worked out at 44.6 nM.

As to `Cc1cccc2c(CCCN3CCC(c4cccc(NC(=O)C(C)C)c4)CC3)c(-c3ccc(F)cc3)[nH]c12` [Example 716], the Ki (Peakr293 cell membranes) was found to be 4.5 nM.

With `CC(C)C(=O)Nc1cccc(C2CCN(Cc3c[nH]nc3-c3ccc(C(F)(F)F)cc3)CC2)c1` [Example 216], for the setting “membranes from Peakr293 cells”, the Ki was found to be 818 nM.

In the case of `CCCC(=O)Nc1ccc(C2CCN(CCCCn3ccc4ccccc43)CC2)cc1` [Example 840], the Ki (Peakr293 cell membranes) was 663 nM.

In the case of `CC(C)C(=O)Nc1cccc(C2CCN(CCCOc3ccccc3Br)CC2)c1` [Example 350], for the setting “membranes from Peakr293 cells”, the Ki was 12.1 nM.

Turning to `CC(C)C(=O)Nc1cccc(C2CCN(Cc3ccc4ccccc4n3)CC2)c1` [Example 255], for the setting “membranes from Peakr293 cells”, the inhibition constant (Ki) was found to be 590 nM.

For `CC(C)C(=O)Nc1cccc(C2CCN(Cc3ccc(Oc4ccccc4)cc3)CC2)c1` [Example 259], the Ki (membranes from Peakr293 cells) is 15.4 nM.

As for `Cc1cccc(-n2ccc3cccc(CN4CCC(c5cccc(NC(=O)C(C)C)c5)CC4)c32)c1C` [Example 878], the inhibition constant Ki (Peakr293 cell membranes) was 169 nM.

In the case of `CC(C)C(=O)Nc1cccc(C2CCN(CCCc3c(-c4ccc(I)cc4)n(-c4ccccc4)c4ccccc34)CC2)c1` [Example 747], the Ki (Peakr293 cell membranes) is 161 nM.

As to `CC(C)C(=O)Nc1cccc(C2CCN(CC[C@H](NC(=S)NC(C)(C)C)c3ccccc3)CC2)c1` [Example 606], where the note is “Peakr293 cell membranes”, the Ki was determined as 40.4 nM.

On to `Cc1cccc2c(CCCN3CCC(c4cccc(NC(=O)C(C)C)c4)CC3)c(-c3ccccc3F)[nH]c12` [Example 710], for which, under “Peakr293 cell membranes”, the inhibitory constant (Ki) was 6.9 nM.

With `Cc1cccc(-n2ccc3cc(CN4CCC(c5cccc(NC(=O)C(C)C)c5)CC4)ccc32)c1` [Example 103], the inhibitory constant (Ki) (membranes from Peakr293 cells) was 21.3 nM.

For `COc1ccc(C(=O)CCCN2CCC(c3cccc(NC(=O)C(C)C)c3)CC2)cc1` [Example 944], the inhibitory constant (Ki) (Peakr293 cell membranes) worked out at 38.8 nM.

For the compound `CC(C)C(=O)Nc1cccc(C2CCN(C[C@H](C)COc3ccccc3Br)CC2)c1` [Example 365], the Ki (membranes from Peakr293 cells) is 42.9 nM.

As to `CC(C)C(=O)Nc1cccc(C2CCN(CCCc3c(-c4cccc([N+](=O)[O-])c4)n(-c4ccccc4)c4ccccc34)CC2)c1` [Example 771], the inhibitory constant (Ki) (Peakr293 cell membranes) was found to be 189 nM.

`O=C(Nc1cccc(C2CCN(CC[C@@H](O)c3ccccc3)CC2)c1)C1CC1` [Example 278]: where the note is “membranes from Peakr293 cells”, the inhibitory constant (Ki) was 85.8 nM.

For `CC(C)C(=O)Nc1cccc(C2CCN(C[C@H](C)COc3cccc(Cl)c3)CC2)c1` [Example 358], where the note is “membranes from Peakr293 cells”, the Ki stood at 136 nM.

As to `CC(C)C(=O)Nc1cccc(C2CCN(CCNC(=O)Nc3ccc(-c4ccccc4)cc3)CC2)c1` [Example 647], the Ki (Peakr293 cell membranes) was determined as 81.6 nM.

Take `CC(C)C(=O)Nc1cccc(C2CCN(C[C@@H](Oc3cccc(Cl)c3)c3ccccc3)CC2)c1` [Example 335]: the Ki (membranes from Peakr293 cells) was 888 nM.

Take `CC(C)C(=O)Nc1cccc(C2CCN(Cc3cccc(Oc4cc(Cl)cc(Cl)c4)c3)CC2)c1` [Example 207, N-(3-{1-[3-(3,5-dichlorophenoxy)benzyl]-4-piperidinyl}phenyl)-2-methylpropanamide]: the Ki (membranes from Peakr293 cells) amounted to 137 nM.

As for `COc1ccc(C(CCN2CCC(c3cccc(NC(=O)C(C)C)c3)CC2)Oc2cccc(C(C)=O)c2)cc1` (stereo not shown) [Example 179], the inhibitory constant (Ki) (membranes from Peakr293 cells) is 82.3 nM.

Consider `CC(C)C(=O)Nc1cccc(C2CCN(Cc3c[nH]nc3-c3cccs3)CC2)c1` [Example 235], for which, where the note is “membranes from Peakr293 cells”, the Ki came to 412 nM.

As to `CC(=O)c1cccc(OC(CCN2CCC(c3cccc(NC(=O)C(C)C)c3)CC2)c2ccc3c(c2)CCC3)c1` (stereo not shown) [Example 155], the inhibition constant Ki (membranes from Peakr293 cells) is 7.4 nM.

`COC(=O)c1ccccc1-n1ccc2cc(CN3CCC(c4cccc(NC(=O)C(C)C)c4)CC3)ccc21` [Example 843, METHYL 2-[5-({4-[3-(ISOBUTYRYLAMINO)PHENYL]-1-PIPERIDINYL}METHYL)-1H-INDOL-1-YL]BENZOATE]: the inhibition constant (Ki) (Peakr293 cell membranes) stood at 15.5 nM.

Regarding `CC(C)C(=O)Nc1cccc(C2CCN(CCNC(=O)c3ccc4ccccc4c3)CC2)c1` [Example 650], the Ki (Peakr293 cell membranes) came out at 21.1 nM.

With `CC(C)C(=O)Nc1cccc(C2CCN(Cc3cccc4c3ccn4-c3cccc(Cl)c3)CC2)c1` [Example 858], the inhibition constant (Ki) (Peakr293 cell membranes) was found to be 44.9 nM.

As to `CC(C)C(=O)Nc1cccc(C2CCN(Cc3cccc4c3ccn4-c3cccc(C(F)(F)F)c3)CC2)c1` [Example 861], the inhibition constant Ki (Peakr293 cell membranes) came to 94.1 nM.

In the case of `Cc1cccc(-n2ccc3cc(CN4CCC(c5cccc(NC(=O)C(C)C)c5)CC4)ccc32)c1` [Example 835], the Ki (Peakr293 cell membranes) was 21.3 nM.

As to `CC(C)C(=O)Nc1cccc(C2CCN(CCCc3c(-c4ccc(Br)cc4)[nH]c4c3ccc3ccccc34)CC2)c1` [Example 752], the Ki (Peakr293 cell membranes) was 21.7 nM.

As for `CC(C)C(=O)Nc1cccc(C2CCN(CCCc3c(-c4ccc(Cl)cc4)[nH]c4c3ccc3ccccc34)CC2)c1` [Example 707], the inhibitory constant (Ki) (Peakr293 cell membranes) turned out to be 19.6 nM.

`Cc1onc(-c2c(Cl)cccc2Cl)c1C(=O)OC(CCCN1CCC(c2cccc(NC(=O)C(C)C)c2)CC1)c1ccccc1` (stereo not shown) [Example 284, 4-{4-[3-(ISOBUTYRYLAMINO)PHENYL]-1-PIPERIDINYL}-1-PHENYLBUTYL 3-(2,6-DICHLOROPHENYL)-5-METHYL-4-ISOXAZOLECARBOXYLATE]: the inhibition constant (Ki) (membranes from Peakr293 cells) was determined as 16.3 nM.

Take `CC(C)C(=O)Nc1cccc(C2CCN(C[C@@H](C)COc3cccc(Br)c3)CC2)c1` [Example 371]: where the note is “membranes from Peakr293 cells”, the inhibition constant (Ki) turned out to be 163 nM.

For the compound `COC(=O)c1ccc2c(CN3CCC(c4cccc(NC(=O)C(C)C)c4)CC3)cn(-c3ccccc3)c2c1` [Example 506, METHYL 3-({4-[3-(ISOBUTYRYLAMINO)PHENYL]-1-PIPERIDINYL}METHYL)-1-PHENYL-1H-INDOLE-6-CARBOXYLATE], for the setting “Peakr293 cell membranes”, the inhibition constant Ki was 2.5 nM.

Turning to `CC(C)C(=O)Nc1cccc(C2CCN(CCNC(=O)C(c3ccccc3)c3ccccc3)CC2)c1` [Example 649], the Ki (Peakr293 cell membranes) is 1.7 nM.

For `CC(C)C(=O)Nc1cccc(C2CCN(CCC(Oc3cccc(Br)c3)c3ccc(F)cc3)CC2)c1` (stereo not shown) [Example 138], the inhibition constant Ki (membranes from Peakr293 cells) stood at 9.3 nM.

`CC(C)C(=O)Nc1cccc(C2CCN(CCCc3c(-c4ccc(C(F)(F)F)cc4)n(C)c4ccccc34)CC2)c1` [Example 682]: where the note is “Peakr293 cell membranes”, the Ki worked out at 7.1 nM.

For the compound `CC(C)C(=O)Nc1cccc(C2CCN(Cc3ccc4c(c3)OCCCO4)CC2)c1` [Example 234], the inhibitory constant (Ki) (membranes from Peakr293 cells) amounted to 116 nM.
